This test concerns the target T1, Nav1.7 (or SCN9A) channel; HEK cells stably transfected with hSCN9A (Homo sapiens, UniProt Q15858).
T1 construct: expressed in transfected cells
The test can be described thus: Nav1.7 block, PatchXpress 7000 automated whole-cell voltage clamp, estimated IC50 (EIC50). The settings on record: estimated IC50; hSCN9A HEK cells, PatchXpress platform; Examples 283-814. It counts as cell-based.

T1 sequence (Q15858 whole entry): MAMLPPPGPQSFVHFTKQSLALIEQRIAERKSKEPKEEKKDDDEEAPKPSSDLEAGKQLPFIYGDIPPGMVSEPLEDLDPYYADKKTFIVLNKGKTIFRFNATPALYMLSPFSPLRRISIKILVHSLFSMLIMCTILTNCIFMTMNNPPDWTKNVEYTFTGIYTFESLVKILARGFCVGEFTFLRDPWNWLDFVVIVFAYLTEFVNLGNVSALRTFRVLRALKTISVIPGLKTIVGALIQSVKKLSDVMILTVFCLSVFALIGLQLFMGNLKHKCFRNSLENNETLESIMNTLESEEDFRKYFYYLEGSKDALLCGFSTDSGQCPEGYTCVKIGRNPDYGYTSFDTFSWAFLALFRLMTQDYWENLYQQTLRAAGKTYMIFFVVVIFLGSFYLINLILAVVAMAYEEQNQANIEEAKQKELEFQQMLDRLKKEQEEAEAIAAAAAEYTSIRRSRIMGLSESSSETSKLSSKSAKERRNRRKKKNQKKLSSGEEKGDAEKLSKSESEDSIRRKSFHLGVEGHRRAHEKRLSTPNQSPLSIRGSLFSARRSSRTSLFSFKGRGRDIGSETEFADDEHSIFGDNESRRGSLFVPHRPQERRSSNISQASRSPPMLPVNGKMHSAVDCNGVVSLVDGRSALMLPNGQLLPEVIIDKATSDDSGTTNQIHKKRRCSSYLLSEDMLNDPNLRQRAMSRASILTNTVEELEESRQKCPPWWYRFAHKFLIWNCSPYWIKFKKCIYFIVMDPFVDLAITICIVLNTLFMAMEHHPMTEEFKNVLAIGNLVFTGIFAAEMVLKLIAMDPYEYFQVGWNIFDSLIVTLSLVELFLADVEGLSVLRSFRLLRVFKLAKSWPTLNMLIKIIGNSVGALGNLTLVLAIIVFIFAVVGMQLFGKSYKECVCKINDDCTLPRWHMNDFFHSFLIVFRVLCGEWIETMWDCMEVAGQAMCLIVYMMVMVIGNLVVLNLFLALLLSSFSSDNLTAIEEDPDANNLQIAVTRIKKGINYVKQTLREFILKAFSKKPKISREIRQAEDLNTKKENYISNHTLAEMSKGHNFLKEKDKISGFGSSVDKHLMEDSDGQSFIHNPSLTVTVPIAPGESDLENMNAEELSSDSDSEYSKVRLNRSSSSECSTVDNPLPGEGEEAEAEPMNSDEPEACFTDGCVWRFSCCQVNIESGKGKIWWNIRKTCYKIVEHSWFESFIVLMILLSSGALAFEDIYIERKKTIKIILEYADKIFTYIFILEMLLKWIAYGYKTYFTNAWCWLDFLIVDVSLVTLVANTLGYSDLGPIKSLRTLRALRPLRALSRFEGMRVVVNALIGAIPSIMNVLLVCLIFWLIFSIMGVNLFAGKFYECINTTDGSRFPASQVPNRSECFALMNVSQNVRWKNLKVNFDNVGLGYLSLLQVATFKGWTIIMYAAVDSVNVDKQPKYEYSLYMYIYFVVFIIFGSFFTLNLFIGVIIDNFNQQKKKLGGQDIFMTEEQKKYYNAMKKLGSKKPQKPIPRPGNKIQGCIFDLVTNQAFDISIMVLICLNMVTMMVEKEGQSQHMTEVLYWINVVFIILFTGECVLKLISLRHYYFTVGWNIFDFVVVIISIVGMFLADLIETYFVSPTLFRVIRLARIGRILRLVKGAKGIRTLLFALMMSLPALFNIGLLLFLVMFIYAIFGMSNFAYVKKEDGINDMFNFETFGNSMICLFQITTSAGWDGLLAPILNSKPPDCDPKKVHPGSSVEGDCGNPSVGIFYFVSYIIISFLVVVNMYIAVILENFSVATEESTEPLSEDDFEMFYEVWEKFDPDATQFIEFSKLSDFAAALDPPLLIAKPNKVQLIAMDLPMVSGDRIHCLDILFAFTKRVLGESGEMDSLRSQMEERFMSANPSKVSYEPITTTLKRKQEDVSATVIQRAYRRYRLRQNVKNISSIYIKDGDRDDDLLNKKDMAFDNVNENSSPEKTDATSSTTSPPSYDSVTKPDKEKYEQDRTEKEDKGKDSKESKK

Take `Cn1nccc1-c1cc(C(F)(F)F)ncc1Oc1ccc(S(=O)(=O)Nc2cscn2)cc1C#N` [Example 601, 3-cyano-4-{[4-(1-methyl-1H-pyrazol-5-yl)-6-(trifluoromethyl)pyridin-3-yl]oxy}-N-1,3-thiazol-4-ylbenzenesulfonamide]: the IC50 is 940 nM.
As for `Cn1nccc1-c1cc(Cl)ccc1Oc1ccc(S(=O)(=O)Nc2ncsc2F)cc1C#N` [Example 602, 4-[4-chloro-2-(1-methyl-1H-pyrazol-5-yl)phenoxy]-3-cyano-N-(5-fluoro-1,3-thiazol-4-yl)benzenesulfonamide], the IC50 is 1500 nM.
Regarding `O=S(=O)(Nc1cscn1)c1cc(F)c(Oc2ccc(Cl)cc2C2CNC2)cc1F` [Example 604, 4-(2-azetidin-3-yl-4-chlorophenoxy)-2,5-difluoro-N-1,3-thiazol-4-ylbenzenesulfonamide], the IC50 is 820 nM.
Next, `O=S(=O)(Nc1cscn1)c1cc(F)c(Oc2ccc(Cl)cc2-c2cn[nH]c2)cc1F` [Example 605, 4-[4-chloro-2-(1H-pyrazol-4-yl)phenoxy]-2,5-difluoro-N-1,3-thiazol-4-ylbenzenesulfonamide]: 100 nM; `Cn1nccc1-c1cc(Cl)ccc1Oc1cc(F)c(S(=O)(=O)Nc2cscn2)cc1F` [Example 606, 4-[4-chloro-2-(1-methyl-1H-pyrazol-5-yl)phenoxy]-2,5-difluoro-N-1,3-thiazol-4-ylbenzenesulfonamide]: 130 nM.
Under `Cn1cc(-c2cc(OC(F)(F)F)ccc2Oc2cc(F)c(S(=O)(=O)Nc3cscn3)cc2F)cn1` [Example 607, 2,5-difluoro-4-[2-(1-methyl-1H-pyrazol-4-yl)-4-(trifluoromethoxy)phenoxy]-N-1,3-thiazol-4-ylbenzenesulfonamide] stands 2800 nM; under `Cn1nccc1-c1cc(Cl)ccc1Oc1ccc(S(=O)(=O)Nc2ccc(F)cn2)cc1C#N` [Example 608, 4-[4-chloro-2-(1-methyl-1H-pyrazol-5-yl)phenoxy]-3-cyano-N-(5-fluoropyridin-2-yl)benzenesulfonamide], 400 nM.
Next, `Cn1nc(C(F)(F)F)cc1-c1ccc(Oc2ccc(S(=O)(=O)Nc3ncc(F)s3)cc2F)cc1` [Example 609, 3-fluoro-N-(5-fluoro-1,3-thiazol-2-yl)-4-{4-[1-methyl-3-(trifluoromethyl)-1H-pyrazol-5-yl]phenoxy}benzenesulfonamide]: 1700 nM; `Cc1cc(C)n(-c2ccc(Oc3ccc(S(=O)(=O)Nc4nccs4)c(F)c3)cc2)n1` [Example 610, 4-[4-(3,5-Dimethyl-1H-pyrazol-1-yl)phenoxy]-2-fluoro-N-1,3-thiazol-2-ylbenzenesulfonamide]: more than 1000 nM; `O=S(=O)(Nc1cscn1)c1ccc(Oc2ccc(Cl)cc2-c2cn[nH]c2)c(F)c1` [Example 611, 4-[4-chloro-2-(1H-pyrazol-4-yl)phenoxy]-3-fluoro-N-1,3-thiazol-4-ylbenzenesulfonamide]: 520 nM.
With `O=S(=O)(Nc1cscn1)c1ccc(Oc2ccc(OC(F)(F)F)cc2-c2cn[nH]c2)c(F)c1` [Example 612, 3-fluoro-4-[2-(1H-pyrazol-4-yl)-4-(trifluoromethoxy)phenoxy]-N-1,3-thiazol-4-ylbenzenesulfonamide], the IC50 is 540 nM.
Next, `Cn1nccc1-c1cc(F)ccc1Oc1cc(F)c(S(=O)(=O)Nc2ncc(Cl)s2)cc1F` [Example 613, N-(5-chloro-1,3-thiazol-2-yl)-2,5-difluoro-4-[4-fluoro-2-(1-methyl-1H-pyrazol-5-yl)phenoxy]benzenesulfonamide]: 110 nM; `O=S(=O)(Nc1ncc(Cl)s1)c1cc(F)c(Oc2ccc(F)cc2-c2cn[nH]c2)cc1F` [Example 614, N-(5-chloro-1,3-thiazol-2-yl)-2,5-difluoro-4-[4-fluoro-2-(1H-pyrazol-4-yl)phenoxy]benzenesulfonamide]: 180 nM; `Cn1nccc1-c1ccc(C#N)cc1Oc1cc(F)c(S(=O)(=O)Nc2ncc(Cl)s2)cc1F` [Example 615, N-(5-chloro-1,3-thiazol-2-yl)-4-[5-cyano-2-(1-methyl-1H-pyrazol-5-yl)phenoxy]-2,5-difluorobenzenesulfonamide]: 2000 nM.
Under `N#Cc1cncc(-c2cc(C(F)(F)F)ccc2Oc2cc(F)c(S(=O)(=O)Nc3ncns3)cc2Cl)c1` [Example 616, 5-chloro-4-[2-(5-cyanopyridin-3-yl)-4-(trifluoromethyl)phenoxy]-2-fluoro-N-1,2,4-thiadiazol-5-ylbenzenesulfonamide] stands 280 nM.
Next, `Nc1cccc(-c2cc(F)ccc2Oc2cc(F)c(S(=O)(=O)Nc3ncns3)cc2Cl)n1` [Example 617, 4-[2-(6-aminopyridin-2-yl)-4-fluorophenoxy]-5-chloro-2-fluoro-N-1,2,4-thiadiazol-5-ylbenzenesulfonamide]: 30 nM; `Nc1ncccc1-c1cc(Cl)ccc1Oc1cc(F)c(S(=O)(=O)Nc2ncns2)cc1Cl` [Example 618, 4-[2-(2-aminopyridin-3-yl)-4-chlorophenoxy]-5-chloro-2-fluoro-N-1,2,4-thiadiazol-5-ylbenzenesulfonamide]: 11 nM; `O=S(=O)(Nc1ncns1)c1cc(Cl)c(Oc2ccc(Cl)cc2C2CNC2)cc1F` [Example 619, 4-(2-azetidin-3-yl-4-chlorophenoxy)-5-chloro-2-fluoro-N-1,2,4-thiadiazol-5-ylbenzenesulfonamide]: 45 nM.
As to `O=S(=O)(Nc1ncns1)c1cc(Cl)c(Oc2ccc(F)cc2-c2ccn[nH]2)cc1F` [Example 620, 5-chloro-2-fluoro-4-[4-fluoro-2-(1H-pyrazol-5-yl)phenoxy]-N-1,2,4-thiadiazol-5-ylbenzenesulfonamide], the IC50 is 4.8 nM.
Consider `Cn1nccc1-c1cc(F)ccc1Oc1cc(F)c(S(=O)(=O)Nc2ncns2)cc1Cl` [Example 621, 5-chloro-2-fluoro-4-(4-fluoro-2-(1-methyl-1H-pyrazol-5-yl)phenoxy)-N-(1,2,4-thiadiazol-5-yl)benzenesulfonamide], for which the IC50 is 75 nM.
As to `Nc1nccc(-c2cc(F)ccc2Oc2cc(F)c(S(=O)(=O)Nc3ncc(Cl)s3)cc2F)n1` [Example 622, 4-[2-(2-aminopyrimidin-4-yl)-4-fluorophenoxy]-N-(5-chloro-1,3-thiazol-2-yl)-2,5-difluorobenzenesulfonamide], the IC50 was more than 1000 nM.
Turning to `O=S(=O)(Nc1ccc(F)cn1)c1cc(Cl)c(Oc2ccc(Cl)cc2C2CCNCC2)cc1F` [Example 623, 5-chloro-4-(4-chloro-2-piperidin-4-ylphenoxy)-2-fluoro-N-(5-fluoropyridin-2-yl)benzenesulfonamide], the IC50 is 46 nM.
On to `Cn1nccc1-c1cc(F)ccc1Oc1cc(F)c(S(=O)(=O)Nc2cscn2)cc1Br` [Example 625, 5-bromo-2-fluoro-4-[4-fluoro-2-(1-methyl-1H-pyrazol-5-yl)phenoxy]-N-1,3-thiazol-4-ylbenzenesulfonamide], for which the half-maximal inhibitory concentration (IC50) is 18 nM.
Next, `Cc1cc(S(=O)(=O)Nc2cscn2)c(F)cc1Oc1ccc(F)cc1-c1ccnn1C` [Example 626, 2-fluoro-4-[4-fluoro-2-(1-methyl-1H-pyrazol-5-yl)phenoxy]-5-methyl-N-1,3-thiazol-4-ylbenzenesulfonamide]: 120 nM.
Next, `CCc1cc(S(=O)(=O)Nc2cscn2)c(F)cc1Oc1ccc(F)cc1-c1ccnn1C` [Example 627, 5-ethyl-2-fluoro-4-[4-fluoro-2-(1-methyl-1H-pyrazol-5-yl)phenoxy]-N-1,3-thiazol-4-ylbenzenesulfonamide]: 160 nM; `Cc1cc(S(=O)(=O)Nc2cscn2)ccc1Oc1ccccc1-c1ccnn1C` [Example 628, 3-methyl-4-[2-(1-methyl-1H-pyrazol-5-yl)phenoxy]-N-1,3-thiazol-4-ylbenzenesulfonamide]: 1000 nM; `Cn1nccc1-c1ccccc1Oc1ccc(S(=O)(=O)Nc2cscn2)cc1I` [Example 629, 3-iodo-4-[2-(1-methyl-1H-pyrazol-5-yl)phenoxy]-N-1,3-thiazol-4-ylbenzenesulfonamide]: 240 nM.
Under `Cc1scnc1NS(=O)(=O)c1cc(Cl)c(Oc2ccc(F)cc2-c2ccnn2C)cc1F` [Example 630, 5-chloro-2-fluoro-4-(4-fluoro-2-(1-methyl-1H-pyrazol-5-yl)phenoxy)-N-(5-methylthiazol-4-yl)benzenesulfonamide] stands more than 1000 nM; under `Cn1nccc1-c1cc(Cl)ccc1Oc1ncc(S(=O)(=O)Nc2cscn2)cc1Cl` [Example 631, 5-chloro-6-(4-chloro-2-(1-methyl-1H-pyrazol-5-yl)phenoxy)-N-(thiazol-4-yl)pyridine-3-sulfonamide], 3300 nM.
For the compound `O=S(=O)(Nc1ncns1)c1cc(F)c(Oc2ccc(C(F)(F)F)cc2-c2cnccn2)cc1F` [Example 632, 2,5-difluoro-4-[2-pyrazin-2-yl-4-(trifluoromethyl)phenoxy]-N-1,2,4-thiadiazol-5-ylbenzenesulfonamide], the IC50 is 100 nM.
On to `O=S(=O)(Nc1ncns1)c1cc(F)c(Oc2ccc(C(F)(F)F)cc2C2CCOCC2)cc1F` [Example 633, 2,5-difluoro-4-[2-(tetrahydro-2H-pyran-4-yl)-4-(trifluoromethyl)phenoxy]-N-1,2,4-thiadiazol-5-ylbenzenesulfonamide], for which the IC50 is 27 nM.
As to `Nc1cc(-c2cc(F)ccc2Oc2cc(F)c(S(=O)(=O)Nc3ncns3)cc2F)ccn1` [Example 634, 4-[2-(2-aminopyridin-4-yl)-4-fluorophenoxy]-2,5-difluoro-N-1,2,4-thiadiazol-5-ylbenzenesulfonamide], the IC50 was 11 nM.
For the compound `Cc1[nH]ncc1-c1cc(Cl)ccc1Oc1cc(F)c(S(=O)(=O)Nc2ncns2)cc1F` [Example 635, 4-[4-chloro-2-(5-methyl-1H-pyrazol-4-yl)phenoxy]-2,5-difluoro-N-1,2,4-thiadiazol-5-ylbenzenesulfonamide], the IC50 was 6.3 nM.
As to `O=S(=O)(Nc1ncns1)c1cc(F)c(Oc2ccc(Cl)cc2-c2ccn[nH]2)cc1F` [Example 637, 4-[4-Chloro-2-(1H-pyrazol-5-yl)phenoxy]-2,5-difluoro-N-1,2,4-thiadiazol-5-ylbenzenesulfonamide], the IC50 is 16 nM.

As a reminder, the IC50 is the point on the concentration scale where inhibition reaches its midpoint.

The record behind these values is patent US8541588B2, “Sulfonamide derivatives” (Pfizer Limited, priority 2009, dated 2013).
